Test [1] concerns the target T1, FLT3-ITD (Homo sapiens, UniProt P36888).
T1 construct: FLT3-ITD; Invitrogen #PV6190
T1 sequence (P36888 1-993): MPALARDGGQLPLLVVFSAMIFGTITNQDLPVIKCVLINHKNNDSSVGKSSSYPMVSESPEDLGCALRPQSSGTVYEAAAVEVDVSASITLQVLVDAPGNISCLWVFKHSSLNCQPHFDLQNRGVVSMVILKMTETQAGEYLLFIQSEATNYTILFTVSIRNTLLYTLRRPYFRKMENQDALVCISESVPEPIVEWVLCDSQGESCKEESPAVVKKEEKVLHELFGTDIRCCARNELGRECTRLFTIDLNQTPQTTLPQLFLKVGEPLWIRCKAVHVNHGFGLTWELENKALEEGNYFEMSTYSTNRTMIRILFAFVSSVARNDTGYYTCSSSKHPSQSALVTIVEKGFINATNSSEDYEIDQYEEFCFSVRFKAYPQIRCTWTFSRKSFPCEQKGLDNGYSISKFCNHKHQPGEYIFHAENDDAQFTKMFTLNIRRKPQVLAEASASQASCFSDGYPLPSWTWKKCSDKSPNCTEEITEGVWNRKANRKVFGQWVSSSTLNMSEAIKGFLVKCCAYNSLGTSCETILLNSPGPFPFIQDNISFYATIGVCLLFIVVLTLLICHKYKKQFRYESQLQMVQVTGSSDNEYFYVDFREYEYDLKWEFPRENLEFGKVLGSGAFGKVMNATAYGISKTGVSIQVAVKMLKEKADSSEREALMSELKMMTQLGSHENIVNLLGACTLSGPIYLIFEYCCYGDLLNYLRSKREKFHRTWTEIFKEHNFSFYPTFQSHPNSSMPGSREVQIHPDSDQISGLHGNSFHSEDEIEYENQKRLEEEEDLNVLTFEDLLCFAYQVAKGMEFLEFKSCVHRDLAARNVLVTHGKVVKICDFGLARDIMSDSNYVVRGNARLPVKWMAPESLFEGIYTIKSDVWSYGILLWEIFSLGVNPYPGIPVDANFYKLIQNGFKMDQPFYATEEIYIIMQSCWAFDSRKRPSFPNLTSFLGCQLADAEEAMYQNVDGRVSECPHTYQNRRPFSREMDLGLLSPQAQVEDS
Kind of test: FLT3-ITD biochemical kinase assay (AlphaScreen). In a few lines:
(§1)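 AlphaScreen read-out of tyrosine phosphorylation of a 30 nM biotinylated poly(Glu4-Tyr) substrate, captured on streptavidin donor and PY20 acceptor beads at room temperature. ATP for IC50 work was 100 μM with FLT3-ITD and 10 μM with FLT3-D835Y; reduced 580 nm proximity signal reflects kinase inhibition.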
On the technique in general: In Alpha technology, singlet oxygen from a donor bead excites a nearby acceptor bead.

The target of test [2] is T2, FLT3-D835Y (Homo sapiens, UniProt P36888, D835Y).
T2 construct: purchased Invitrogen PV3967
T2 sequence (P36888 27-993 D835Y): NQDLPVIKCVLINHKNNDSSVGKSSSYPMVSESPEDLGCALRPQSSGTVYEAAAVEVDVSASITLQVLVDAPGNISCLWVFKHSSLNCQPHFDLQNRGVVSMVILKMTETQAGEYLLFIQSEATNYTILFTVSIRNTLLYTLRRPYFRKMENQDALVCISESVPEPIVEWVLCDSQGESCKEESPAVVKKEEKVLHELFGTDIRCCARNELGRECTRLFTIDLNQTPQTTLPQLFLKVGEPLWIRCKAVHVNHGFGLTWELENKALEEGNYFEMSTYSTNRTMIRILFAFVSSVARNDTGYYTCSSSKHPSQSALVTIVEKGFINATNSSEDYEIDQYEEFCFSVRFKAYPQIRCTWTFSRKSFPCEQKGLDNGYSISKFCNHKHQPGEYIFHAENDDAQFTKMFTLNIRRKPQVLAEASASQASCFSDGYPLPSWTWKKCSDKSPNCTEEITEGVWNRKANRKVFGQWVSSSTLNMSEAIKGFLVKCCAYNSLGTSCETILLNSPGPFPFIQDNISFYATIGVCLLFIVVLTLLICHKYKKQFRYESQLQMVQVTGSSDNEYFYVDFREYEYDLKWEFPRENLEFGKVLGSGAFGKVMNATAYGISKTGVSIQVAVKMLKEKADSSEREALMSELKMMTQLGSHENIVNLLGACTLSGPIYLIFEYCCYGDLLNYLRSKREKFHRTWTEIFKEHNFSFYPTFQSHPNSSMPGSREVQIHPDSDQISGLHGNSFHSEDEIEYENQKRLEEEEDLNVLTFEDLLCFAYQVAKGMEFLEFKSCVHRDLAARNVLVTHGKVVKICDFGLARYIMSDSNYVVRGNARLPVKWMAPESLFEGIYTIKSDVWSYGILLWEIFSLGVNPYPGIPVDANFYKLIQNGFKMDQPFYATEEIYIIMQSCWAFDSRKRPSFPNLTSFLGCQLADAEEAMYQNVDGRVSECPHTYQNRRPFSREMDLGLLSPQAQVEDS
The test is described as follows: FLT3-D835Y biochemical kinase assay (AlphaScreen). In a few lines: as §1

The target in test [3] is c-Kit (Homo sapiens, UniProt P10721). The test is described as follows: c-Kit biochemical assay (per US 2007/0032519). The method, boiled down:
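Biochemical kinase inhibition run per US 2007/0032519; values reported as binned IC50 ranges (0.0001–1 μM, 1–10 μM, 10–200 μM).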

Results on 20 compounds are retold here after patent publication US10160755B2 (Plexxikon Inc., priority 2015, dated 2018).

Broadly, the IC50 is the concentration that inhibits the measured activity by half. Low readings indicate higher potency, high ones lower potency.

SMILES strings stand for the structures.

Sequence of c-Kit (P10721 26-976): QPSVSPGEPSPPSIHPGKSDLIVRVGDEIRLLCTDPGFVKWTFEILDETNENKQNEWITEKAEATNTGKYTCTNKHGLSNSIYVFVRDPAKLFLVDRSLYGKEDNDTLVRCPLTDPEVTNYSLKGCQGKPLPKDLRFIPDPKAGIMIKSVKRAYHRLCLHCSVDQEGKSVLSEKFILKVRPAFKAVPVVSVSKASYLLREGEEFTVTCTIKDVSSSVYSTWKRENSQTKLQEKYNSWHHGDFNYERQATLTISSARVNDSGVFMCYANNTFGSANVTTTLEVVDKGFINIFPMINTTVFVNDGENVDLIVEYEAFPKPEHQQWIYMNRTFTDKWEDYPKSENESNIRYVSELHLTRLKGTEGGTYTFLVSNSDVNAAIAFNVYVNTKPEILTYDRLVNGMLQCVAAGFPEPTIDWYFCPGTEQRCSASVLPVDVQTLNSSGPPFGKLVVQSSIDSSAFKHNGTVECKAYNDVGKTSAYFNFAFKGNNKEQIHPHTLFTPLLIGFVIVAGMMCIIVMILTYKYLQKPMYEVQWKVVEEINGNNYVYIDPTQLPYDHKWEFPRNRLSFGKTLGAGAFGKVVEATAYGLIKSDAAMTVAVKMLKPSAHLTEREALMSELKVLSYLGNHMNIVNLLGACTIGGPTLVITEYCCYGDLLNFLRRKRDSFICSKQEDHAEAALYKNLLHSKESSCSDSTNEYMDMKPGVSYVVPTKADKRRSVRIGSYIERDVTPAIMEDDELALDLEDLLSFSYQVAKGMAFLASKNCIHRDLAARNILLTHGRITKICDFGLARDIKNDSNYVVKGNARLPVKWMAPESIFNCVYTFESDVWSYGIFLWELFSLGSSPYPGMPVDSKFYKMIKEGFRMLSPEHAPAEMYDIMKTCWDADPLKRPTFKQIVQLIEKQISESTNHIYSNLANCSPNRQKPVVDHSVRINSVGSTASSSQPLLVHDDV

Turning to `Cn1cnc2ccc(-c3c[nH]c4ncc(-c5cccc(NS(C)(=O)=O)c5)nc34)cc21` [P-038, N-[3-[7-(3-methylbenzimidazol-5-yl)-5H-pyrrolo[2,3-b]pyrazin-2-yl]phenyl]methanesulfonamide], the IC50 in test [1] lay in the range of 0.0001 to 1 µM; in test [2], 0.0001 to 1 µM; in test [3] it was 10 to 200 µM.
As to `CC(C)(C)n1cnc2ccc(-c3c[nH]c4ncc(-c5cnc(C(N)=O)c(Cl)c5)nc34)cc21` [P-364, 5-[7-(3-tert-butylbenzimidazol-5-yl)-5H-pyrrolo[2,3-b]pyrazin-2-yl]-3-chloro-pyridine-2-carboxamide], the IC50 in test [1] was in the range of 0.0001 to 1 µM; in test [2], 0.0001 to 1 µM; in test [3], 1 to 10 µM.
Take `Cn1cnc2ccc(-c3c[nH]c4ncc(-c5cccc(OC(F)(F)F)c5)cc34)cc21` [P-131, 1-methyl-6-[5-[3-(trifluoromethoxy)phenyl]-1H-pyrrolo[2,3-b]pyridin-3-yl]benzimidazole]: the IC50 was in the range of 0.0001 to 1 µM in test [1], 0.0001 to 1 µM in test [2] and 10 to 200 µM in test [3].
Take `Cn1cnc2ccc(-c3c[nH]c4ncc(-c5cccc(NS(C)(=O)=O)c5)cc34)cc21` [P-037, N-[3-[3-(3-methylbenzimidazol-5-yl)-1H-pyrrolo[2,3-b]pyridin-5-yl]phenyl]methanesulfonamide]: the 50% inhibitory concentration (IC50) in test [1] lay in the range of 0.0001 to 1 µM; in test [2] it was 0.0001 to 1 µM; in test [3], 10 to 200 µM.
For `COc1cnc2[nH]cc(-c3ccc4ncn(CC5CC5)c4c3)c2c1` [P-062, 1-(cyclopropylmethyl)-6-(5-methoxy-1H-pyrrolo[2,3-b]pyridin-3-yl)benzimidazole], the half-maximal inhibitory concentration (IC50) lay in the range of 0.0001 to 1 µM in test [1], 0.0001 to 1 µM in test [2] and 10 to 200 µM in test [3].
Take `CCCS(=O)(=O)Nc1cccc(-c2cnc3[nH]cc(-c4ccc5ncn(C)c5c4)c3c2)c1` [P-121, N-[3-[3-(3-methylbenzimidazol-5-yl)-1H-pyrrolo[2,3-b]pyridin-5-yl]phenyl]propane-1-sulfonamide]: the 50% inhibitory concentration (IC50) in test [1] is 0.0001 to 1 µM; in test [2], 0.0001 to 1 µM; in test [3] it was 1 to 10 µM.
Turning to `COc1ccc(-c2cnc3[nH]cc(-c4ccc5ncn(C)c5c4)c3c2)cn1` [P-040, 5-(6-methoxy-3-pyridyl)-3-(3-methylbenzimidazol-5-yl)-1H-pyrrolo[2,3-b]pyridine], the values for the IC50 in test [1], in test [2] and in test [3] were 0.0001 to 1 µM, 0.0001 to 1 µM and 1 to 10 µM, respectively.
`CCn1cnc2ccc(-c3c[nH]c4ncc(OC)cc34)cc21` [P-048, 1-ethyl-6-(5-methoxy-1H-pyrrolo[2,3-b]pyridin-3-yl)benzimidazole]: the IC50 in test [1] lay in the range of 0.0001 to 1 µM; in test [2] it was 0.0001 to 1 µM; in test [3], 10 to 200 µM.
For `COc1cnc2[nH]cc(-c3ccc4[nH]nc(C)c4c3)c2c1` [P-083, 5-methoxy-3-(3-methyl-1H-indazol-5-yl)-1H-pyrrolo[2,3-b]pyridine], the concentration for half-maximal inhibition (IC50) in test [1] is 0.0001 to 1 µM; in test [2] it was 0.0001 to 1 µM; in test [3], 1 to 10 µM.
As for `CS(=O)(=O)Nc1cccc(-c2cnc3[nH]cc(-c4ccc5c(c4)OC(F)(F)O5)c3n2)c1` [P-064, N-[3-[7-(2,2-difluoro-1,3-benzodioxol-5-yl)-5H-pyrrolo[2,3-b]pyrazin-2-yl]phenyl]methanesulfonamide], the IC50 in test [1] was in the range of 1 to 10 µM; in test [2], 1 to 10 µM; in test [3], 10 to 200 µM.
Regarding `COc1cc(-c2cnc3[nH]cc(-c4ccc5ncn(C)c5c4)c3c2)cc(OC)n1` [P-123, 5-(2,6-dimethoxy-4-pyridyl)-3-(3-methylbenzimidazol-5-yl)-1H-pyrrolo[2,3-b]pyridine], the IC50 in test [1] was 0.0001 to 1 µM; in test [2], 0.0001 to 1 µM; in test [3], 10 to 200 µM.
As for `COc1cc(-c2cnc3[nH]cc(-c4ccc5ncn(C)c5c4)c3c2)ccn1` [P-042, 5-(2-methoxy-4-pyridyl)-3-(3-methylbenzimidazol-5-yl)-1H-pyrrolo[2,3-b]pyridine], the IC50 in test [1] was in the range of 0.0001 to 1 µM; in test [2], 0.0001 to 1 µM; in test [3] it was 1 to 10 µM.
In the case of `CS(=O)(=O)Nc1cccc(-c2cnc3[nH]cc(-c4ccc5c(c4)OCCO5)c3n2)c1` [P-059, N-[3-[7-(2,3-dihydro-1,4-benzodioxin-6-yl)-5H-pyrrolo[2,3-b]pyrazin-2-yl]phenyl]methanesulfonamide], the IC50 in test [1] lay within 0.0001 to 1 µM; in test [2] it was 0.0001 to 1 µM; in test [3] it was 10 to 200 µM.
Regarding `Cn1cnc2ccc(-c3c[nH]c4ncc(-c5cnc(C6CC6)nc5)cc34)cc21` [P-039, 5-(2-cyclopropylpyrimidin-5-yl)-3-(3-methylbenzimidazol-5-yl)-1H-pyrrolo[2,3-b]pyridine], the concentration for half-maximal inhibition (IC50) in test [1] fell in the range of 0.0001 to 1 µM; in test [2] it was 0.0001 to 1 µM; in test [3] it was 1 to 10 µM.
Take `CS(=O)(=O)Nc1cccc(-c2cnc3[nH]cc(-c4ccc5c(c4)NCCO5)c3n2)c1` [P-085, N-[3-[7-(3,4-dihydro-2H-1,4-benzoxazin-6-yl)-5H-pyrrolo[2,3-b]pyrazin-2-yl]phenyl]methanesulfonamide]: the results for the IC50 in test [1], in test [2] and in test [3] were 0.0001 to 1 µM, 0.0001 to 1 µM and 1 to 10 µM, respectively.
Consider `c1nc2cc(-c3c[nH]c4ncc(-c5cnc(C6CC6)nc5)cc34)ccc2[nH]1` [P-027, 3-(1H-benzimidazol-5-yl)-5-(2-cyclopropylpyrimidin-5-yl)-1H-pyrrolo[2,3-b]pyridine], for which the IC50 in test [1], in test [2] and in test [3] was 0.0001 to 1 µM in each case.
Regarding `Cc1cnc2[nH]cc(-c3ccc4ncn(C)c4c3)c2c1` [P-018, 1-methyl-6-(5-methyl-1H-pyrrolo[2,3-b]pyridin-3-yl)benzimidazole], the results for the 50% inhibitory concentration (IC50) in test [1], in test [2] and in test [3] were 0.0001 to 1 µM, 0.0001 to 1 µM and 1 to 10 µM, respectively.
For `COc1cnc2[nH]cc(-c3ccc4ncn(CC(F)(F)F)c4c3)c2c1` [P-047, 5-methoxy-3-[3-(2,2,2-trifluoroethyl)benzimidazol-5-yl]-1H-pyrrolo[2,3-b]pyridine], the IC50 was in the range of 0.0001 to 1 µM in test [1], 0.0001 to 1 µM in test [2] and 1 to 10 µM in test [3].
In the case of `CS(=O)(=O)Nc1cccc(-c2cnc3[nH]cc(-c4ccc5c(c4)N(CC(F)(F)F)CCO5)c3n2)c1` [P-087, N-[3-[7-[4-(2,2,2-trifluoroethyl)-2,3-dihydro-1,4-benzoxazin-6-yl]-5H-pyrrolo[2,3-b]pyrazin-2-yl]phenyl]methanesulfonamide], the IC50 in test [1] lay within 0.0001 to 1 µM; in test [2], 0.0001 to 1 µM; in test [3], 10 to 200 µM.
With `COc1cc(-c2cnc3[nH]cc(-c4ccc5ncn(C)c5c4)c3c2)ccc1C#N` [P-117, 2-methoxy-4-[3-(3-methylbenzimidazol-5-yl)-1H-pyrrolo[2,3-b]pyridin-5-yl]benzonitrile], the IC50 was 0.0001 to 1 µM in test [1], 0.0001 to 1 µM in test [2] and 1 to 10 µM in test [3].
